Literature values as cited in patent US20030088889A1, “Enhancing biological activity of plants” (priority 2002, published 2003).

Columns and labels:
[1] = biological target: T1, estrogen receptor (Homo sapiens, UniProt P03372)
T1 sequence (P03372 1-595): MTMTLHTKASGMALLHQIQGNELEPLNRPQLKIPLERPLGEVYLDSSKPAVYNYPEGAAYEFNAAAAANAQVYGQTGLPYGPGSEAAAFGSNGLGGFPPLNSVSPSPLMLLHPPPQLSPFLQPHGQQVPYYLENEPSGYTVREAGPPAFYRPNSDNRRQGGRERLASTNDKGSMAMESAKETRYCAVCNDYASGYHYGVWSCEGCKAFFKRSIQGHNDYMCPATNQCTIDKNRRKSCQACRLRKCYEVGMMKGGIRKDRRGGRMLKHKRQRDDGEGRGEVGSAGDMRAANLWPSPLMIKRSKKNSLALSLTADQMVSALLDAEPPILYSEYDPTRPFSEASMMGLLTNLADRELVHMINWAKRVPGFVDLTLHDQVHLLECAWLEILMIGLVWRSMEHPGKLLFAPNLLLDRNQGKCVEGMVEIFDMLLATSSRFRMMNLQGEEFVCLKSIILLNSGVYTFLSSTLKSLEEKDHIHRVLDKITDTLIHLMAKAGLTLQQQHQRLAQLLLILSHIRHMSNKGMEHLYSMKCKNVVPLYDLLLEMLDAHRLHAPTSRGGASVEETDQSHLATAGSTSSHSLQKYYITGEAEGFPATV

[2] = tested on: neuronal reuptake of monoamines and amino acids

affinity to the estrogen receptor [1] | Molecule | inhibition of neuronal reuptake of monoamines and amino acids [2]
weak affinity | O=c1cc(-c2ccc(O)c(-c3c(O)cc(O)c4c(=O)cc(-c5ccc(O)cc5)oc34)c2)oc2cc(O)cc(O)c12 [biapigenin] | 
 | hyperforin | potently inhibit
